The values below come from PubChem BioAssay AID1419 (Emory University Molecular Libraries Screening Center, 2008).

A short description of this assay: EBV protein-peptide binding inhibitors, dose response, biochemical, fluorescence polarization (AID 1419). Conditions: cell-free protein-peptide binding, 2 h; for fold change: measured here: P channel fold over control, at 54 µM.

Activity calls are given as the source filed them. No rule for the calls is given here.

One may read the IC50 as the midpoint of a concentration-inhibition curve. With `COC(=O)C(Nc1nccs1)(OC)C(F)(F)F` (centres undefined), the concentration for half-maximal inhibition (IC50) was 13.8 µM and the fold change turned out to be 2.09.
On to `COc1ccc(OC)c(/C=C2\SC(=S)N(Cc3cccnc3)C2=O)c1`, for which the IC50 is 6.71 µM and the fold change was 5.16.
For `O=C1NC(=O)C2=Cc3ccc(O)cc3OC2(O)N1` (centres undefined), in that order: < 0.42 µM and 100.
For `O=C(O)/C=C/c1cn(-c2ccccc2)nc1-c1ccc(-c2ccc([N+](=O)[O-])cc2)o1` the same measures were 5.25 µM and 2.34.
`Cc1ccn(C(=O)c2ccc(NC(=O)C3CCCCC3)cc2)n1`: the IC50 was > 54 µM (inactive) and the fold change came to 0.987.
For `O=C(N=Nc1ccc(NOC(=O)c2ccccc2Br)cc1)c1ccccc1O`, in that order: > 54 µM (inactive) and 0.957.
For `COc1ccc(C2C(C(C)=O)=C(C)N=c3s/c(=C\c4cc(C)n(C)c4C)c(=O)n32)c(OC)c1` (centres undefined) the same measures were 4.29 µM and 11.8.
For `CCCCNc1ccc2c3c(cccc13)C(=O)N(CCCC)C2=O`, the IC50 was < 0.42 µM and the fold change was determined as 98.3.
For `CCN(CC)C(=O)/C(=C\c1ccc(Br)cc1)NC(=O)c1ccccc1OC`, in that order: 4.67 µM and 1.15.
For `CC(O)CCc1nc2ccc(C(=O)O)cc2[nH]1` (centres undefined), in that order: > 54 µM (inactive) and 0.983.
For the compound `COCCN=c1scc(-c2ccco2)n1/N=C/c1ccc(O)c(O)c1O`, the IC50 was 12 µM and the fold change turned out to be 1.04.
As to `O=C(Nc1ccc2nc3ccccc3nc2c1)c1ccccc1`, the IC50 was 15.5 µM and the fold change was determined as 1.85.
In the case of `O=C(O)c1ccccc1C1=Nc2ccc(O)cc2Oc2cc(O)ccc21`, the IC50 is < 0.42 µM and the fold change was 14.2.
For `Cc1nnc(N2C(=O)C(O)=C(C(=O)c3ccco3)C2c2ccc(F)cc2)s1` (centres undefined), in that order: 10.4 µM and 2.42.
Regarding `CCN(CC)C(=O)CC(c1cc(OC)c(OC)c(OC)c1)c1c(OC)cc(OC)c2c(-c3ccccc3)cc(=O)oc12` (centres undefined), the IC50 was 33.8 µM (inactive) and the fold change was determined as 1.01.
Take `Cc1ccccc1-n1c(SCc2c(C)noc2C)nnc1-c1cccnc1`: the IC50 is 3.57 µM and the fold change worked out at 4.88.
For `CCOc1cc(Br)c(Br)c(C=Nc2ccc(NC(C)=O)cc2)c1O` the same measures were 1.93 µM and 8.05.
For `O=c1cc(C(F)(F)F)c2cc3c4c(c2o1)CCCN4CCC3` the same measures were < 0.42 µM and 57.5.
For `CCCN1C(=O)/C(=C/C=C2\N(CC)c3ccccc3C2(C)C)SC1=S`, in that order: 0.95 µM and 12.
Consider `Cc1ccc2cc3c(N)c4c(C)ccc(C)c4nc3nc2c1`, for which the half-maximal inhibitory concentration (IC50) was 0.92 µM and the fold change was 6.77.
For `Cc1ccc(C2C3=C(CCCC3=O)Nc3[nH]c(=S)[nH]c(=O)c32)cc1` (centres undefined) the same measures were > 54 µM (inactive) and 0.983.
For `COc1cc(/C=N/c2oc(-c3ccccc3)cc2C#N)ccc1O` the same measures were 15.5 µM and 10.2.
In the case of `COc1ccc(NC(=O)CSc2ccc3c4c(cccc24)C(=O)c2ccccc2-3)cc1`, the IC50 is 3.14 µM and the fold change came to 11.
For `C/C(=N/OC(=O)c1c(-c2c(Cl)cccc2Cl)noc1C)c1cnccn1`, the IC50 is > 54 µM (inactive) and the fold change came to 0.997.
For `O=c1c(/C=C(\O)c2ccccc2)nc2ccccc2n1-c1ccccc1` the same measures were 14.1 µM and 27.6.
For `COC(=O)[C@@]1(C#N)[C@@H]2C=CC(C(C)=O)=CN2[C@@H](C(N)=O)[C@@H]1c1ccc(F)cc1` the same measures were 1.05 µM and 10.2.
For `CN(C)c1ccc(/C=c2/sc3n(c2=O)NC2(c4ccccc4)N(C)C(=O)N(C)C2(c2ccccc2)N=3)cc1` (centres undefined), in that order: > 54 µM (inactive) and 5.21.
Consider `O=C1CCNc2ccc(-c3ccccc3)cc21`, for which the concentration for half-maximal inhibition (IC50) was < 0.42 µM and the fold change came to 32.7.
For the compound `O=C(N/N=C/c1ccc(Cl)cc1)c1nc2ccc([N+](=O)[O-])cc2c(=O)[nH]1`, the IC50 was > 54 µM (inactive) and the fold change worked out at 1.04.
For `Nc1cccc(C(=O)OCC(=O)Nc2cccc3c2C(=O)c2ccccc2C3=O)c1` the same measures were 1.81 µM and 2.03.
For `O=C1c2cccc3c([N+](=O)[O-])ccc(c23)C(=O)N1Cc1cccnc1`, in that order: > 54 µM (inactive) and 5.08.
For `O=C(Nc1nnc(-c2ccccc2Cl)o1)c1cc2cc([N+](=O)[O-])ccc2s1` the same measures were > 54 µM (inactive) and 1.09.
With `CC(C)CSC1=NSC2=NC(=O)/C(=C\c3coc4ccccc4c3=O)C(=N)N12`, the IC50 was > 54 µM (inactive) and the fold change was determined as 33.
For `Cc1cc(C=C2C(=O)c3ccccc3C2=O)c(C)n1-c1ccccc1`, in that order: 5.56 µM and 9.41.
For the compound `Cc1ccc(C)c(-n2c3nc(=O)[nH]c(=O)c-3cc3cc([N+](=O)[O-])ccc32)c1`, the IC50 was 8.3 µM and the fold change was found to be 2.52.
In the case of `CCN1C(=O)/C(=C\c2ccc(-c3ccc([N+](=O)[O-])cc3OC)o2)SC1=Nc1cccc(C(=O)O)c1`, the IC50 was > 54 µM (inactive) and the fold change was found to be 0.573.
Turning to `COc1ccc(N/C=C2\C(=O)CCc3c2oc2cc(Cl)c(O)c(Cl)c32)cc1`, the IC50 was > 54 µM (inactive) and the fold change was found to be 11.2.
Take `O=C(Cc1nc2ccccc2[nH]c1=O)c1ccccc1`: the IC50 is 9.54 µM and the fold change is 5.07.
For the compound `CCC(=O)Nc1nc2n(n1)C(c1ccc(OC)cc1)C=C(c1ccccc1)N2` (centres undefined), the IC50 was 5.14 µM and the fold change was found to be 2.8.
For `CN1Cc2c(c(C#N)c(N)n(C)c2=S)CC1(C)C`, in that order: > 54 µM (inactive) and 1.89.
For `S=C(Nc1ccc2nc(-c3ccccn3)c(-c3ccccn3)nc2c1)N1CCCCC1` the same measures were > 54 µM (inactive) and 1.3.
For `C/C(N)=C(/C#N)C(=O)CSc1nnc(Nc2ccccc2)s1`, in that order: > 54 µM (inactive) and 0.95.
As for `CSC1=NSC2=NC(=O)/C(=C/c3coc4ccc(O)cc4c3=O)C(=N)N12`, the IC50 is 2.5 µM and the fold change is 63.6.
For `O=[N+]([O-])c1ccc(-c2cn3nc(-c4ccccc4)c(-c4ccccc4)nc3n2)cc1` the same measures were 3.58 µM and 21.1.
For `CCNc1cccc2c1C(=O)N(C)C2=O` the same measures were 0.96 µM and 24.2.
For `N#Cc1cccc(NC(=O)CSc2ccc3c4c(cccc24)C(=O)c2ccccc2-3)c1`, in that order: 5.72 µM and 3.94.
For `N#CC1=C(N)N2C(=C(C#N)C1c1ccccc1)Sc1ccccc12` (centres undefined), the IC50 is > 54 µM (inactive) and the fold change came to 2.54.
